Results as given in ChEMBL document CHEMBL4665893, “Scalable Synthesis, In Vitro cccDNA Reduction, and In Vivo Antihepatitis B Virus Activity of a Phosphonomethoxydeoxythreosyl Adenine Prodrug” (J Med Chem, 2020).
Active and inactive are the calls of the source. No cut-off for these calls is given here.

Tests used:
[1] = Toxicity in C57BL/6 mouse assessed as induction of mortality at 60 mg/kg, po for 14 days; format: organism-based; details: in vivo, 336 h, time 14 day
Hepatitis B virus [2] = experiment: Antiviral activity against ETV-resistant and adenovirus AdH294-7LR harboring wild-type HBV infected in human HepG2 cells assessed as viral replicative intermediate DNA level at 120 nM incubated for 5 days by Southern blot analysis (reference value: 100%); format: functional; details: time 5 day
Hepatitis B virus [3] = experiment: Antiviral activity against adenovirus AdH294-WT harboring wild-type HBV genotype D accession #V01460 infected in human HepG2 cells assessed as reduction in viral replicative intermediate DNA level at 40 nM incubated for 5 days by Southern blot analysis (reference value: 100%); format: functional; set-up: scale not given: the % may be the effect or the level left; details: time 5 day
Hepatitis B virus [4] = experiment: Antiviral activity against adenovirus AdH294-WT harboring wild-type HBV genotype D accession #V01460 infected in human HepG2 cells assessed as reduction in viral replicative intermediate DNA level at 4 nM incubated for 5 days by Southern blot analysis (reference value: 100%); format: functional; set-up: scale not given: the % may be the effect or the level left; details: time 5 day
Hepatitis B virus [5] = experiment: Antiviral activity against adenovirus AdH294-WT harboring wild-type HBV genotype D accession #V01460 infected in human HepG2 cells assessed as reduction in viral replicative intermediate DNA level at 1100 nM incubated for 5 days by Southern blot analysis (reference value: 100%); format: functional; set-up: scale not given: the % may be the effect or the level left; details: time 5 day
[6] = Toxicity in C57BL/6 mouse assessed as induction of functional deficit at 60 mg/kg, po for 14 days; format: organism-based; details: in vivo, 336 h, time 14 day
[7] = Genotoxicity in Salmonella typhimurium TA1535 assessed as increase in number of spontaneous revertants colonies by Ames test; format: toxicity; details: salmonella enterica subsp. enterica serovar typhimurium, 1 µM
[8] = Toxicity in human HepDE19 cells assessed as reduction in beta-actin level incubated for 9 days by qPCR analysis; format: cell-based; details: time 9 day
Hepatitis B virus [9] = experiment: Antiviral activity against adenovirus AdH294-WT harboring wild-type HBV genotype D accession #V01460 infected in human HepG2 cells assessed as reduction in viral replicative intermediate DNA level at 370 nM incubated for 5 days by Southern blot analysis (reference value: 100%); format: functional; set-up: scale not given: the % may be the effect or the level left; details: time 5 day
[10] = Toxicity in HBV infected hydrodynamic injection C57BL/6 mouse model assessed as effect on body weight at 0.6 to 60 mg/kg, po QD for 6 days; format: organism-based; details: in vivo, 144 h, dose 0.6-60 mg/kg, time 6 day
Hepatitis B virus [11] = experiment: Antiviral activity against adenovirus AdH294-WT harboring wild-type HBV genotype D accession #V01460 infected in human HepG2 cells assessed as reduction in viral replicative intermediate DNA level at 10000 nM incubated for 5 days by Southern blot analysis (reference value: 100%); format: functional; set-up: scale not given: the % may be the effect or the level left; details: time 5 day
[12] = Toxicity in C57BL/6 male mouse assessed as effect on organ weight level at 60 mg/kg, po for 14 days; format: organism-based; details: in vivo, 336 h, time 14 day
[13] = Toxicity in C57BL/6 female mouse assessed as increase in thymus weight level at 60 mg/kg, po for 14 days; format: organism-based; details: in vivo, 336 h, time 14 day
[14] = Toxicity in C57BL/6 male mouse assessed as reduction in hematocrit level at 60 mg/kg, po for 14 days by hematology analysis; format: organism-based; details: in vivo, 336 h, time 14 day
[15] = Toxicity in C57BL/6 male mouse assessed as reduction in hemoglobin level at 60 mg/kg, po for 14 days by hematology analysis; format: organism-based; details: in vivo, 336 h, time 14 day
Hepatitis B virus [16] = experiment: Antiviral activity against adenovirus AdH294-WT harboring wild-type HBV genotype D accession #V01460 infected in human HepG2 cells assessed as reduction in viral replicative intermediate DNA level at 120 nM incubated for 5 days by Southern blot analysis (reference value: 100%); format: functional; set-up: scale not given: the % may be the effect or the level left; details: time 5 day
Hepatitis B virus [17] = experiment: Antiviral activity against ETV-resistant and adenovirus AdH294-7LR harboring wild-type HBV infected in human HepG2 cells assessed as viral replicative intermediate DNA level at 370 nM incubated for 5 days by Southern blot analysis (reference value: 100%); format: functional; details: time 5 day
Hepatitis B virus [18] = experiment: Antiviral activity against adenovirus AdH294-WT harboring wild-type HBV genotype D accession #V01460 infected in human HepG2 cells assessed as reduction in viral replicative intermediate DNA level at 3300 nM incubated for 5 days by Southern blot analysis (reference value: 100%); format: functional; set-up: scale not given: the % may be the effect or the level left; details: time 5 day
[19] = Selectivity index, […] against HBV infected in human HepDE19 cells to CC50 for toxicity in human HepDE19 cells; format: cell-based; details: read-out: Ratio CC50/IC50
[20] = Genotoxicity in Salmonella typhimurium TA1537 assessed as increase in number of spontaneous revertants colonies by Ames test; format: toxicity; details: salmonella enterica subsp. enterica serovar typhimurium, 1 µM
[21] = Toxicity in C57BL/6 male mouse assessed as increase in LDL-C level at 60 mg/kg, po for 14 days; format: organism-based; details: in vivo, 336 h, time 14 day
[22] = Toxicity in C57BL/6 male mouse assessed as reduction in erythrocytes level at 60 mg/kg, po for 14 days by hematology analysis; format: organism-based; details: in vivo, 336 h, time 14 day
[23] = Toxicity in C57BL/6 male mouse assessed as reduction in food consumption loss at 60 mg/kg, po for 11 days relative to control; format: organism-based; details: in vivo, 264 h, time 11 day
Hepatitis B virus [24] = experiment: Antiviral activity against ETV-resistant and adenovirus AdH294-7LR harboring wild-type HBV infected in human HepG2 cells assessed as viral replicative intermediate DNA level at 40 nM incubated for 5 days by Southern blot analysis (reference value: 100%); format: functional; details: time 5 day
Hepatitis B virus [25] = experiment: Antiviral activity against adenovirus AdH294-WT harboring wild-type HBV genotype D accession #V01460 infected in human HepG2 cells assessed as reduction in viral replicative intermediate DNA level at 13 nM incubated for 5 days by Southern blot analysis (reference value: 100%); format: functional; set-up: scale not given: the % may be the effect or the level left; details: time 5 day
Hepatitis B virus [26] = experiment: Antiviral activity against HBV infected hydrodynamic injection C57BL/6 mouse model assessed as reduction in serum HBV DNA level at 0.6 to 60 mg/kg, po QD for 6 days by qPCR analysis; format: functional, organism-based; details: dose mg/kg 0.6-60, time 6.0 day

CC(C)CCOC(=O)C[C@H](NP(=O)(CO[C@H]1CO[C@@H](n2cnc3c(N)ncnc32)C1)Oc1ccccc1)C(=O)OCCC(C)C (mixture of isomers)
Activity [1]: Non-Toxic | Activity (Hepatitis B virus [2]): 38.5% | Activity (Hepatitis B virus [3]): 12.9% | Activity (Hepatitis B virus [4]): 39.1% | Activity (Hepatitis B virus [5]): 0.7% | Activity [6]: Non-Toxic | Activity [7]: Non-Toxic | CC50 at 216 h [8]: 0.23 µM | Activity (Hepatitis B virus [9]): 1.8% | Activity [10]: Non-Toxic | Activity (Hepatitis B virus [11]): 0% | Activity [12]: Non-Toxic | Activity [13]: Toxic | Activity [14]: Toxic | Activity [15]: Toxic | Activity (Hepatitis B virus [16]): 7.5% | Activity (Hepatitis B virus [17]): 20.2% | Activity (Hepatitis B virus [18]): 0% | selectivity ratio [19]: 37 | Activity [20]: Non-Toxic | Activity [21]: Toxic | Activity [22]: Toxic | Activity [23]: Toxic | Activity (Hepatitis B virus [24]): 59.1% | Activity (Hepatitis B virus [25]): 22.4% | Activity (Hepatitis B virus [26]): Active
